# Laboratory results taken from ChEMBL document CHEMBL4825728, “Development of succinimide-based inhibitors for the mitochondrial rhomboid protease PARL” (Bioorg Med Chem Lett, 2021).
# pIC50: −log10 of the molar value. The source made the active and inactive calls. No cut-off for these calls is given here.
# Assays:
# [1] = target: T1, Presenilin-associated rhomboid-like protein, mitochondrial (Homo sapiens) (UniProt Q9H300); test: Inhibition of FLAG-tagged human PARL transfected in HEK293T cell membrane assessed as inhibition of FP-Rh labeling at 200 uM treated with compound prior to FP-Rh addition by competitive ABPP based analysis; type: cell membranes
# T1 sequence (whole entry): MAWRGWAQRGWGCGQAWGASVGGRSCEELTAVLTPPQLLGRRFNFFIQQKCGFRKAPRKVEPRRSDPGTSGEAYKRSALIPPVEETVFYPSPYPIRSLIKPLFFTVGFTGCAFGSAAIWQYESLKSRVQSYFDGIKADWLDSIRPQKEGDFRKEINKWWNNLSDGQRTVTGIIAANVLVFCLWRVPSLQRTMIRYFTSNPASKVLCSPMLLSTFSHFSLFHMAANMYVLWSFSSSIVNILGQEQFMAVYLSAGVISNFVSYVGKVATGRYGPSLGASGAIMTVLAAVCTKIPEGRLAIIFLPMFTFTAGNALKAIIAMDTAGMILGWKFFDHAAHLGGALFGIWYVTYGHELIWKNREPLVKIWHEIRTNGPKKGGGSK
# [2] = target: T2, Rhomboid protease GlpG (Escherichia coli (strain K12)) (UniProt P09391); test: Inhibition of GlpG in Escherichia coli BL21 assessed as inhibition of FP-Rh labeling at 200 uM treated with compound prior to FP-Rh addition by competitive ABPP based analysis
# T2 sequence (whole entry): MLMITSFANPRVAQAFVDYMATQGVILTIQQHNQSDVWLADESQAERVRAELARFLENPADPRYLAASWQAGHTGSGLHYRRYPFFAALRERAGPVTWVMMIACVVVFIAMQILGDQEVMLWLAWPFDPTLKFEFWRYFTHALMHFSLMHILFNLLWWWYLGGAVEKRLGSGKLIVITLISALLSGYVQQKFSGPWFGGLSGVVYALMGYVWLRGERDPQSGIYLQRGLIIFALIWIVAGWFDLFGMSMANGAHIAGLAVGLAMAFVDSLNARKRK
# [3] = Solubility of the compound in HEK-293T cell membrane transfected with FLAG-tagged human PARL; type: ADME, cell membranes
# [4] = target: T3, Rhomboid protease GlpG (Escherichia coli (strain K12), UniProt P09391); test: Inhibition of GlpG in Escherichia coli BL21 assessed as inhibition of FP-Rh labeling treated with compound for 30 mins prior to FP-Rh addition by competitive ABPP based analysis
# T3 sequence (P09391 whole entry): T2 sequence (whole entry)
# [5] = target: T4, Presenilin-associated rhomboid-like protein, mitochondrial (Homo sapiens, UniProt Q9H300); test: Inhibition of human PARL transfected in HEK293T cell membrane assessed as inhibition of FP-Rh labeling treated with compound for 30 mins prior to FP-Rh addition by competitive ABPP based analysis; type: cell membranes
# T4 sequence (Q9H300 whole entry): T1 sequence (whole entry)
# [6] = target: T1, Presenilin-associated rhomboid-like protein, mitochondrial (Homo sapiens); test: Reversible inhibition of FLAG-tagged human PARL transfected in HEK293T cell membrane assessed as FP-Rh labeling at 200 uM treated with compound followed by gel filtration and later incubated for 4 hrs prior to FP-Rh labeling by competitive ABPP based analysis; type: cell membranes; parameters: Activity: scale not given: the % may be the effect or the level left
# [7] = target: T1, Presenilin-associated rhomboid-like protein, mitochondrial (Homo sapiens); test: Inhibition of FLAG-tagged human PARL transfected in HEK293T cell membrane assessed as inhibition of FP-Rh labeling at 100 uM incubated for 24 hrs followed by cells washing and lysis prior to FP-Rh labeling by In situ based analysis; type: cell membranes
# [8] = target: T1, Presenilin-associated rhomboid-like protein, mitochondrial (Homo sapiens); test: Inhibition of FLAG-tagged human PARL transfected in HEK293T cell membrane assessed as inhibition of FP-Rh labeling at 100 uM incubated for 8 hrs followed by cells washing and lysis prior to FP-Rh labeling by In situ based analysis; type: cell membranes
# [9] = target: T1, Presenilin-associated rhomboid-like protein, mitochondrial (Homo sapiens); test: Reversible inhibition of FLAG-tagged human PARL transfected in HEK293T cell membrane assessed as FP-Rh labeling at 200 uM treated with compound followed by gel filtration and later incubated for 4 hrs prior to FP-Rh labeling by western blot analysis; type: cell membranes
compound,measurement,setting,value
Cc1ccc(S(=O)(=O)N[C@@H](Cc2ccccc2)C(=O)CCl)cc1,inhibition,[1],inactive
same,inhibition,[2],inactive
CS(=O)(=O)ON1C(=O)CCC1=O,solubility,[3],Soluble
O=C1c2ccccc2C(=O)N1OS(=O)(=O)c1ccccc1,solubility,[3],Soluble
O=C1CCC(=O)N1OS(=O)(=O)c1ccc(-c2ccccc2)cc1,solubility,[3],Soluble
same,pIC50,[4],4.59
same,pIC50,[5],5.72
CS(=O)(=O)N1C(=O)CCC1=O,solubility,[3],Soluble
O=C1c2ccccc2C(=O)N1OS(=O)(=O)c1ccc2ccccc2c1,solubility,[3],Soluble
O=C1CCC(=O)N1S(=O)(=O)c1ccc2ccccc2c1,solubility,[3],Soluble
CC(C)S(=O)(=O)N1C(=O)c2ccccc2C1=O,solubility,[3],Soluble
O=C1CCC(=O)N1OS(=O)(=O)c1ccc([N+](=O)[O-])cc1,solubility,[3],Soluble
CS(=O)(=O)N1C(=O)c2ccccc2C1=O,solubility,[3],Soluble
O=C1CCC(=O)N1S(=O)(=O)c1ccccc1,solubility,[3],Soluble
same,pIC50,[4],< 3.00
same,pIC50,[5],5.37
same,inhibition,[6],Active
same,inhibition,[7],inactive
O=C(OCN1C(=O)c2ccccc2S1(=O)=O)c1ccccc1Cl,pIC50,[4],5.55
same,pIC50,[5],5.06
same,inhibition,[1],100%
same,inhibition,[2],100%
same,Activity,[6],20%
same,inhibition,[8],> 50%
same,inhibition,[7],inactive
O=c1oc(Cl)c(Cl)c2ccccc12,inhibition,[1],Active
same,inhibition,[2],Active
O=S(=O)(F)Cc1ccccc1,inhibition,[1],inactive
same,inhibition,[2],inactive
O=C1c2ccccc2C(=O)N1OS(=O)(=O)c1ccc([N+](=O)[O-])cc1,solubility,[3],Soluble
NCCc1ccc(S(=O)(=O)F)cc1,inhibition,[1],inactive
same,inhibition,[2],inactive
CS(=O)(=O)ON1C(=O)c2ccccc2C1=O,solubility,[3],Soluble
CC(C)S(=O)(=O)ON1C(=O)c2ccccc2C1=O,solubility,[3],Soluble
O=C1CCC(=O)N1S(=O)(=O)c1ccc([N+](=O)[O-])cc1,solubility,[3],Soluble
same,pIC50,[4],3.51
same,pIC50,[5],6.05
same,inhibition,[8],Active
same,inhibition,[7],inactive
O=C1c2ccccc2C(=O)N1S(=O)(=O)c1ccc([N+](=O)[O-])cc1,solubility,[3],Soluble
COc1ccc(S(=O)(=O)N2C(=O)CCC2=O)cc1,solubility,[3],Soluble
COc1ccc(S(=O)(=O)ON2C(=O)CCC2=O)cc1,solubility,[3],Soluble
O=C1c2ccccc2C(=O)N1S(=O)(=O)c1ccc(-c2ccccc2)cc1,solubility,[3],Soluble
CC(C)S(=O)(=O)N1C(=O)CCC1=O,solubility,[3],Soluble
CC(C)S(=O)(=O)ON1C(=O)CCC1=O,solubility,[3],Soluble
COc1ccc(S(=O)(=O)ON2C(=O)c3ccccc3C2=O)cc1,solubility,[3],Soluble
O=C1CCC(=O)N1OS(=O)(=O)c1ccc2ccccc2c1,solubility,[3],Soluble
O=C1c2ccccc2C(=O)N1OS(=O)(=O)c1ccc(-c2ccccc2)cc1,solubility,[3],Soluble
O=C1c2ccccc2C(=O)N1S(=O)(=O)c1ccccc1,solubility,[3],Soluble
O=C1CCC(=O)N1S(=O)(=O)c1ccc(-c2ccccc2)cc1,solubility,[3],Soluble
same,pIC50,[4],4.17
same,pIC50,[5],6.15
O=C1c2ccccc2C(=O)N1S(=O)(=O)c1ccc2ccccc2c1,solubility,[3],Soluble
COc1ccc(S(=O)(=O)N2C(=O)c3ccccc3C2=O)cc1,solubility,[3],Soluble
O=C1CCC(=O)N1OS(=O)(=O)c1ccccc1,solubility,[3],Soluble
same,pIC50,[4],3.92
same,pIC50,[5],4.70
same,inhibition,[6],Active
same,inhibition,[9],Active
same,inhibition,[8],> 50%
same,inhibition,[7],inactive
